Measurements: patent US20250325717A1, “ANTI-NUCLEOPHOSMIN 1 ANTIBODY AND ANTIBODY CONJUGATE COMBINATION THERAPIES” (The Children's Medical Center Corporation, priority 2022, published 2025)

What was measured:
[1] = system: Normal hematopoietic precursor cell line HPC7; experiment: Low dose chemotherapeutics: cell surface NPM1 on non-transformed HPC7 cells; format: cell-based; details: daunorubicin 10 nM, venetoclax 40 nM, 48 and 72 hours
Description: (§1) The ability of low doses of chemotherapeutic agents, daunorubicin and venetoclax, to induce cell surface NPM1 on non-transformed cells was tested. Normal hematopoietic precursor cell line HPC7 and normal myeloid progenitor line HOXB8 were exposed to either control or a low dose of a chemotherapeutic treatment. Doses of daunorubicin and venetoclax were administered at 10 nanomolar (nM) and 40 nM, respectively. The results of the antibody binding measured by flow cytometry show no change in the low dose chemotherapeutic compared to controls (FIG. 33).

[2] = system: NPM1 on the surface of OCI-AML3 cells; experiment: Effect of chemotherapeutics on anti-NPM1 antibody binding to OCI-AML3 cell surface; format: cell-based, human
[3] = system: normal myeloid progenitor line HOXB8; experiment: Low dose chemotherapeutics: cell surface NPM1 on non-transformed HOXB8 cells; format: cell-based; details: daunorubicin 10 nM, venetoclax 40 nM, 48 and 72 hours
Description: as §1

OCI-AML3 cells = experiment: Low dose chemotherapeutics: induction of cell surface NPM1 on OCI-AML3 cells; format: cell-based, human; details: daunorubicin 10 nanomolar (nm), venetoclax 40 nm; for NPM1 on the cell surface: 48 hrs
Description: To determine whether low doses of chemotherapeutic agents, daunorubicin and venetoclax, induce cell surface NPM1, OCI-AML3 cells were exposed to either control or a low dose of a chemotherapeutic treatment. OCI-AML3 cells are resistant to BLC2i. Daunorubicin was administered at 10 nanomolar (nm) and venetoclax was administered at 40 nm. Administration of daunorubicin increased NPM1 on the cell surface at 48 hrs and maintained higher expression for at least 9 days. Administration of venetoclax and separately 5-Aza increased NPM1 at 48 hrs and maintained higher expression for at least 7 days (FIG. 32).

[4] = system: NPM1 on human patient derived xenograft (PDX) cells; experiment: FACS binding to human PDX cells transplanted into a mouse model; format: cell-based
Text: (§2) Given that a variety of murine and human leukemia cell lines express cell surface WT and/or mutant NPM1, it was subsequently assessed whether the isolated antibodies could also bind to the surface of these cells. […] These antibodies could further be used in other applications, including, for example, diagnostic agents by instead conjugating the antibodies with an imaging agent, which can in turn be used to locate and measure the relative abundance of cancer cells in a patient.

[5] = system: surface localized NPM1 on primary murine NPM1c AML cells; experiment: FACS binding to primary murine NPM1c AML cells; format: cell-based
Text: as §2

[6] = system: host murine bone marrow cells; experiment: FACS binding to host murine bone marrow cells of PDX mice; format: cell-based; details: host bone marrow of PDX mouse model
Text: as §2

[7] = target: T1, surface localized NPM1 on primary murine MLL-rearranged AML cells (Mus musculus, UniProt Q61937); experiment: FACS binding to primary murine MLL-rearranged AML cells; format: cell-based
T1 construct: endogenous in cells; host or cells: primary murine MLL-rearranged AML cells
T1 sequence (Q61937 whole entry): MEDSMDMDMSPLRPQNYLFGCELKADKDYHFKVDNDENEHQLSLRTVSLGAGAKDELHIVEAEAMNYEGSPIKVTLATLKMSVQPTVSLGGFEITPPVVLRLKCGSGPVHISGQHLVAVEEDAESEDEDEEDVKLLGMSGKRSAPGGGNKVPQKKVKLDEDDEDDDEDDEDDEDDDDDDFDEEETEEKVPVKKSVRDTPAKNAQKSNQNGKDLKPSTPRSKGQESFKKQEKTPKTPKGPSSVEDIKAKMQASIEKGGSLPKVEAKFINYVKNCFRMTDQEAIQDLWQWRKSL
Text: as §2

[8] = target: T2, human nucleophosmin 1 (NPM1) (human, UniProt P06748 1-294); experiment: FACS, human AML PDX cells (PDX-1, PDX-3, PDX-4)
T2 construct: In the blots it is NPM1 from lysates or membrane fractions, not on cells; also called WT NPM1; wild-type NPM1
T2 sequence (P06748 whole entry): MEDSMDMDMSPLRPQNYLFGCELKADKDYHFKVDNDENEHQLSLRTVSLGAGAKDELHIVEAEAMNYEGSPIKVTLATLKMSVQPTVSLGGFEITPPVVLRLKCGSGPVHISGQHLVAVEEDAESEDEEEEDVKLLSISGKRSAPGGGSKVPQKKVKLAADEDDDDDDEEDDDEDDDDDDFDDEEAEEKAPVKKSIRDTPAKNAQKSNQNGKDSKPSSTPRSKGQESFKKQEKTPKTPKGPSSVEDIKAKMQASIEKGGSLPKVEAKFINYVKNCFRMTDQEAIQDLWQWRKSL

murine NPM1 = target: T3, murine NPM1 (murine, UniProt Q61937 1-292); experiment: FACS, primary murine MLL-r AML cells
T3 construct: also called NPM1 on primary murine MLL-rearranged (MLL-r) AML cells; NPM1 on MLL-AF9/Flt3-ITD AML cells
T3 sequence (Q61937 whole entry): as the sequence (Q61937 whole entry) above

COc1cccc2c1C(=O)c1c(O)c3c(c(O)c1C2=O)C[C@@](O)(C(C)=O)C[C@@H]3O[C@H]1C[C@H](N)[C@H](O)[C@H](C)O1 [daunorubicin]
antibody binding (cell surface NPM1) compared to controls [1]: no change | binding between the isolated anti-WT NPM1 and anti-mutant NPM1 antibody and NPM1 on the surface of OCI-AML3 cells ([2]; 10 nM daunorubicin or 40 nM venetoclax): enhanced binding | binding of anti-NPM1 antibody (Merck/Sigma anti-B23 #B0556) to cells ([2]; 8 days post-treatment, 10 nM daunorubicin or 40 nM venetoclax): substantially enhanced | binding of anti-NPM1 antibody (Merck/Sigma anti-B23 #B0556) to cells ([2]; after 48 hours of treatment, 10 nM daunorubicin or 40 nM venetoclax): enhanced | antibody binding (cell surface NPM1) compared to controls [3]: no change | NPM1 on the cell surface (OCI-AML3 cells): increased | time for which higher NPM1 expression was maintained (OCI-AML3 cells): at least 9 days

Nc1ncn([C@@H]2O[C@H](CO)[C@@H](O)[C@H]2O)c(=O)n1 [5-azacytidine]
binding of anti-NPM1 antibodies to NPM1 on the surface of OCI-AML3 cells ([2]; 40 nM 5-azacytidine): The same effect was observed | binding between the isolated anti-mutant NPM1 and OCI-AML3 cells ([2]; after only 24 hours of treatment with 5-Aza): substantially enhanced | NPM1 on the cell surface (OCI-AML3 cells): increased

B1: Ab1 (antibody)
heavy: EVQLQQSVAELVRPGASVKLSCTASGFNIKNIFVHWVKQRPEQGLEWIGKIDPANDNTKFAPNFQGKAAISADTSSNTAYLQLSSLTSEDTAIYYCASDSSGYDAVDYWGQGTSVTVSSAKTTAPSVYPLAPVCGDTTGSSVTLGCLVKGYFPEPVTLTWNSGSLSSGVHTFPAVLQSDLYTLSSSVTVTSSTWPSQSITCNVAHPASSTKVDKKIEPRGPTIKPCPPCKCPAPNLLGGPSVFIFPPKIKDVLMISLSPIVTCVVVDVSEDDPDVQISWFVNNVEVHTAQTQTHREDYNSTLRVVSALPIQHQDWMSGKEFKCKVNNKDLPAPIERTISKPKGSVRAPQVYVLPPPEEEMTKKQVTLTCMVTDFMPEDIYVEWTNNGKTELNYKNTEPVLDSDGSYFMYSKLRVEKKNWVERNSYSCSVVHEGLHNHHTTKSFSRTPGK
light: DIQMTQSPASLSASVGETVTITCRASESVYTYLAWYQQKQGKSPQLLVYNAKTLTEGVPSRFSGSGSGTQFSLRINSLQPEDFGSYYCQHHYGTPYTFGSGTKLEIKRADAAPTVSIFPPSSEQLTSGGASVVCFLNNFYPKDINVKWKIDGSERQNGVLNSWTDQDSKDSTYSMSSTLTLTKDEYERHNSYTCEATHKTSTSPIVKSFNRNEC
binding to NPM1 on PDX cells [4]: bound | binding to surface localized NPM1 [5]: capable of binding | binding to host murine bone marrow cells [6]: without binding | binding to surface localized NPM1 [7]: capable of binding

B2: Ab1 anti-NPM1 antibody (antibody, mouse IgG2a, kappa, V domains shown)
VH: EVQLQQSVAELVRPGASVKLSCTASGFNIKNIFVHWVKQRPEQGLEWIGKIDPANDNTKFAPNFQGKAAISADTSSNTAYLQLSSLTSEDTAIYYCASDSSGYDAVDYWGQGTSVTVSS
VL: DIQMTQSPASLSASVGETVTITCRASESVYTYLAWYQQKQGKSPQLLVYNAKTLTEGVPSRFSGSGSGTQFSLRINSLQPEDFGSYYCQHHYGTPYTFGSGTKLEIKR
notes: also called isolated anti-WT NPM1 antibody
binding result [8]: binds | binding result (murine NPM1): binds
